Measurements: PMC7230232, “Secondary Metabolites from the Culture of the Marine-derived Fungus Paradendryphiella salina PC 362H and Evaluation of the Anticancer Activity of Its Metabolite Hyalodendrin” (Marine Drugs, 2020)
Several values for one entry are separate records, joined by “and”; a condition that tells them apart may be missing. Equal values may be shown once. Read-outs that look alike come from different tables or passages of the source.

How the values were obtained:
[1] = test system: MCF7-Sh-WISP2 cells; test: MTT cell viability assay, MCF7-Sh-WISP2; format: cell-based, human; conditions: pure compounds, MTT, read-out: IC50 MCF7-Sh-WISP2
Protocol: (§1) Cellular viability was determined by the MTT (methylthiazolyldiphenyl-tetrazolium bromide) assay. Briefly, cells were exposed to the indicated concentrations of crude extracts or compounds 1–4 for five doubling times and then incubated for 3 h at 37 °C with MTT. Formazan crystals were then dissolved in DMSO and optical density measured at 570 nm in a microplate reader. The half-maximal inhibitory concentration (IC50) was determined. Values given for crude extracts are averages of at least two experiments done in duplicate. IC50 values calculated for the four isolated compounds and the commercially available 4-hydroxy-tamoxifen (Sigma-Aldrich) are averages of at least three experiments done in duplicate.

[2] = test system: Plasmodium falciparum (chloroquine-resistant FcB1/Colombia strain); test: Anti-plasmodial assay ([3H]hypoxanthine incorporation); format: cell-based; conditions: data not shown, read-out: IC50 against Plasmodium falciparum
Protocol: Supplementary materials and methods.
The fungus was isolated in January 2012 as an endophyte from the holdfast of P. caniculata harvested in Roscoff (Britany, France). Both morphological assessment and internal transcribed spacer (ITS) sequencing were performed to identify it as Paradendryphiella salina. It is now maintained at the MCAM culture collection (Muséum National d’Histoire Naturelle, Paris) under the number PC 362H.
The anti-plasmodial activity was evaluated against the chloroquine-resistant FcB1/Colombia strain of Plasmodium falciparum. The assay was performed using the method of Desjardins (Desjardins et al., 1979). Extracts and pure compounds were diluted in Dimethyl Sulfoxyde (DMSO) and added to the culture medium (final concentration: 20 µg/mL) in 96-well microplates. Asynchronous parasite cultures were then added (1 % parasitemia and 1 % final hematocrite), and plates were maintained for 24 hours at 37 °C in a candle jar. […] After a cycle of freezing and thawing, the cells were harvested from each well onto glass fiber filters, and the dried filters were counted in a scintillation counter. The growth inhibition for each well was determined by comparison of the radioactivity incorporated into the treated culture with that in the control culture maintained on the same plate. […]

[3] = test system: 3T3-F442A cells; test: MTT cell viability assay, 3T3-F442A pre-adipocytes; format: cell-based, murine; conditions: pure compounds, MTT, read-out: IC50 3T3-F442A
Protocol: as §1

[4] = test system: MCF7 cells; test: MTT cell viability assay, MCF7; format: cell-based, human; conditions: MTT, read-out: IC50 MCF7
Protocol: as §1

[5] = Homo sapiens, MCF7, pure compounds

For `COC(=O)CNC(=O)CC[C@@H](C)[C@H]1CC[C@H]2[C@H]3C(C[C@H](O)[C@]12C)[C@@]1(C)CC[C@@H](O)C[C@H]1C[C@H]3O` (stereo partly shown) [Compound 2, glycocholic acid methyl ester], the IC50 ([1]; Homo sapiens) was > 25 µg/mL and > 50 µM, the IC50 [2] was 20.5 ± 3.5 µM and the IC50 ([3]; Mus musculus) was > 25 µg/mL and > 50 µM. The IC50 [4, 5] was > 25 µg/mL and > 50 µM.

Compound “4-hydroxy-tamoxifen [Hydroxi Tamoxifen, reference compound]” has an IC50 [1] of 11.6 µM, an IC50 [3] of 14.5 µM and an IC50 ([4]; pure compounds) of 8.8 µM.

`C[C@H](C(=O)O)[C@H]1CC[C@@]2(C)C3=C(C[C@@H](O)[C@]12C)[C@@]1(C)CC[C@H](O)C(C)(C)C1CC3` (relative stereo) [Compound 1, Dendryphiellide A] was tested, and the IC50 ([1]; Homo sapiens) was greater than 25 µg/mL, the IC50 [1] was greater than 60 µM and the IC50 [2] was 65 ± 4.2 µM. The IC50 ([3]; Mus musculus) was greater than 25 µg/mL, the IC50 [3] was greater than 60 µM and the IC50 [4, 5] was 20 µg/mL.

In the case of `CS[C@]1(CO)C(=O)N(C)[C@](Cc2ccccc2)(SC)C(=O)N1C` [Compound 4, (3R, 6R) bisdethiodi(methylthio)hyalodendrin], the IC50 ([1]; Homo sapiens) is reported as 24 µg/mL and 68 µM, the IC50 ([3]; Mus musculus) is reported as 92 µg/mL and 26 µM and the IC50 [4, 5] is reported as 15 µg/mL and 42 µM.
